Experimental data as given in article PMC7894401 (CPT: Pharmacometrics & Systems Pharmacology, 2020).
“And” between values parts separate entries of the source, which are not always exact repeats. Equal values may be shown once. Read-outs that look alike come from different tables or passages of the source. Values belong to the compound of their own block, whether it stands above or below them.

Key:
[1] = cited from earlier work
UGT1A9 [2] = biological target: T1, UGT1A9 (Homo sapiens, UniProt O60656); experiment: In vivo Ki of MFA fitted in the PBPK model to the clinical MFA–dapagliflozin DDI; conditions: UGT1A9 and UGT2B7, relative potencies kept
T1 sequence (O60656 26-530): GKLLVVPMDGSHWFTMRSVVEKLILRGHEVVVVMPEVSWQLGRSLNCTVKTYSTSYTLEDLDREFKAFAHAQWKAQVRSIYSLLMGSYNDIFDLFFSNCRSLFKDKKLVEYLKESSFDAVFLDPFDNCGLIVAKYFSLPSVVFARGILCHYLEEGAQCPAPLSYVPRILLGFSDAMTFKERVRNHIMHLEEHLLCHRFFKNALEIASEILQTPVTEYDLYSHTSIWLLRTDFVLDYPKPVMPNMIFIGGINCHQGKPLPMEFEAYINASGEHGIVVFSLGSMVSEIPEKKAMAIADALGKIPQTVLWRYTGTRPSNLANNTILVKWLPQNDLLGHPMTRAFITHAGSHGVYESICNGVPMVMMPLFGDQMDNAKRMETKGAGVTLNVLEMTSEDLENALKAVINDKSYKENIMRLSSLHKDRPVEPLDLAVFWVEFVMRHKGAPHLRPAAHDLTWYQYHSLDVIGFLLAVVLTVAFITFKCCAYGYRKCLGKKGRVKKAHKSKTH

UGT2B4 = biological target: T2, UGT2B4 (Homo sapiens, UniProt P06133); experiment: Mefenamic acid inhibition of UGT2B4; format: biochemical; conditions: HLM, 1–100 µM
T2 sequence (P06133 24-528): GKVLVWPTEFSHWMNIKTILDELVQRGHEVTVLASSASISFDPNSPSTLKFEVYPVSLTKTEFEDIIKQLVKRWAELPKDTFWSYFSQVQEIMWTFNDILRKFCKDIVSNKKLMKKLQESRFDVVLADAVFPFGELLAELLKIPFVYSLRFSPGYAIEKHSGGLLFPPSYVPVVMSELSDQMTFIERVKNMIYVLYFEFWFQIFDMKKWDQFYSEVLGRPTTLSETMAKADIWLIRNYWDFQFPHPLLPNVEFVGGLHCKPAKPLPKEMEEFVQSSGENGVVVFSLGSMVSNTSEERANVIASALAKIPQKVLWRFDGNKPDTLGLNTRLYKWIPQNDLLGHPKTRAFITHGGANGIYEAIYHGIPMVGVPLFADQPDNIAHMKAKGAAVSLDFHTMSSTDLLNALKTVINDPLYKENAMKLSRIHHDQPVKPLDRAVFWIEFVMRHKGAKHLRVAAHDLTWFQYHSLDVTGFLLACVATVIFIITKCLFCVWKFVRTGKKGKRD

[3] = cited from earlier work; for Vss: after i.v. administration; for CLiv: intravenous plasma clearance
[4] = Simcyp input, cited from earlier work; for LogP: ref 42 (ertugliflozin), DrugBank 50 (dapagliflozin), DrugBank 49 (MFA)
PBPK model = experiment: PBPK model; parameters: species or system human
[5] = Human ADME study with 14C-labelled drug: excretion and metabolite recovery; format: in vivo; conditions: human ADME study (ertugliflozin ref 12, dapagliflozin ref 23)
CYP = experiment: Overall oxidative; format: in vitro ADME; conditions: human, human liver microsomes (model input, not an incubation)
[6] = human ADME study, ref 12 (ertugliflozin), 23 (dapagliflozin), cited from earlier work; for Renal excretion of unchanged drug: % of dose
UGT = conditions: ref 18 (ertugliflozin), 39 (dapagliflozin); cited from earlier work
[7] = blood/plasma ratio; ref 45 (ertugliflozin), 46 (dapagliflozin); cited from earlier work
[8] = system: UGT2B7 (UGT2B4/2B7 contribution assigned to UGT2B7); experiment: UGT2B4/2B7 contribution to metabolism; format: in vitro ADME, human; conditions: human
UGT2B4/2B7 [9] = experiment: UGT2B4/2B7 contribution to metabolism; format: in vitro ADME, human; conditions: for fm,UGT2B7 observed: calculated from clinical ADME and reaction phenotyping data
PBPK = experiment: PBPK; parameters: species or system human; conditions: dapagliflozin with MFA
UGT1A9 [10] = biological target: T1, UGT1A9; experiment: UGT1A9 contribution to metabolism; format: in vitro ADME; conditions: for fm,UGT1A9 observed: calculated from clinical ADME and reaction phenotyping data; for microsomal CLint: human
Caco‐2 = conditions: ref 17 (ertugliflozin), 46 (dapagliflozin); cited from earlier work
CYP3A4 [11] = experiment: CYP3A4 contribution to metabolism; format: in vitro ADME, human
CYP3A5 [12] = experiment: CYP3A5 contribution to metabolism; format: in vitro ADME, human
UGT1A9 [13] = biological target: T1, UGT1A9; conditions: in vitro UGT reaction phenotyping; cited from earlier work
CYP2C8 [14] = experiment: CYP2C8 contribution to metabolism; format: in vitro ADME, human
CYP3A5 [15] = conditions: in vitro CYP reaction phenotyping, cited from earlier work
CYP3A4 [16] = conditions: in vitro CYP reaction phenotyping, cited from earlier work
[17] = fraction unbound in plasma; ref 45 (ertugliflozin), 46 (dapagliflozin); cited from earlier work
CYP2C8 [18] = conditions: in vitro CYP reaction phenotyping, cited from earlier work
UGT2B4/2B7 [19] = conditions: cited from earlier work
[20] = probenecid 500-mg twice-daily dose
[21] = ref 15 (ertugliflozin), 38 (dapagliflozin)
[22] = dapagliflozin multiple oral dose 10 mg once daily
[23] = dapagliflozin multiple oral dose 50 mg once daily
[24] = dapagliflozin single oral dose 10 mg, geometric mean
[25] = dapagliflozin single oral dose 10 mg
[26] = retrospectively calculated from CLiv, CLr, CYP fm and reaction phenotyping
[27] = ertugliflozin single oral dose 0.5 mg, geometric mean (%CV)
[28] = ertugliflozin single oral dose 2.5 mg, geometric mean (%CV)
[29] = ertugliflozin single oral dose 10 mg, geometric mean (%CV)
[30] = ertugliflozin single oral dose 30 mg, geometric mean (%CV)
[31] = ertugliflozin single oral dose 100 mg, geometric mean (%CV)
[32] = ertugliflozin single oral dose 300 mg, geometric mean (%CV)
[33] = ertugliflozin multiple oral dose 5 mg once daily
[34] = ertugliflozin multiple oral dose 15 mg once daily
[35] = ertugliflozin single dose 0.1 mg administered intravenously
[36] = ertugliflozin single oral dose 0.5 mg
[37] = ertugliflozin single oral dose 2.5 mg
[38] = ertugliflozin single oral dose 10 mg
[39] = ertugliflozin single oral dose 15 mg
[40] = ertugliflozin single oral dose 30 mg
[41] = ertugliflozin single oral dose 100 mg
[42] = ertugliflozin single oral dose 300 mg

Compound: Cc1ccc([C@@H]2O[C@H](CO)[C@@H](O)[C@H](O)[C@H]2O)cc1Cc1ccc(-c2ccc(F)cc2)s1 [canagliflozin]
Increase in canagliflozin exposure ([1]; co-administration with probenecid): 21%

Compound: Cc1cccc(Nc2ccccc2C(=O)O)c1C [MFA, mefenamic acid]
Fold adjustment of in vitro to in vivo UGT Ki values (increased potency) (UGT1A9 [2]): ~ 2.9 fold
Inhibition of UGT2B4 in vitro (UGT2B4): did not inhibit
Observed AUCinf ([3]; MFA single oral dose 500 mg): 34200 ng·h/mL
Observed Cmax ([3]; MFA single oral dose 500 mg): 6900 ng/mL
LogP [4]: 5.4
pKa ([4]; ref DrugBank 49): 3.89
AUC predicted/ observed ratio (PBPK model; MFA single oral dose 500 mg): 0.89
Cmax predicted/ observed ratio (PBPK model; MFA single oral dose 500 mg): 0.92

Compound: Nc1nc(CC(=O)Nc2ccc(CCNC[C@H](O)c3ccccc3)cc2)cs1 [mirabegron]
UGT2B7-mediated metabolism incorporated in PBPK model (UGT2B4/2B7 [19]): ~ 30%

Compound: CCCN(CCC)S(=O)(=O)c1ccc(C(=O)O)cc1 [probenecid]
estimated unbound maximum steady-state concentration (Cmax,ss,u) [20]: 29 µM

More lines, main results first:

Fe observed (fraction excreted unchanged in urine) [5]: 0.02
microsomal CLint (CYP): 4 µL/min/mg
microsomal CLint [8]: 3 µL/min/mg
fm,UGT2B7 observed (UGT2B4/2B7 [9]): 0.09
Remaining UGT metabolism assigned to UGT2B7 (UGT2B4/2B7 [9]; remainder after UGT1A9 contribution): 10%
AUCR predicted/observed ratio (PBPK): 1.0
CmaxR predicted/observed ratio (PBPK): 1.0
fm,UGT1A9 observed (UGT1A9 [10]): 0.79
microsomal CLint (UGT1A9 [10]): 30 µL/min/mg
Relative contribution of UGT1A9 to UGT metabolism (UGT1A9 [10]; in vitro UGT reaction phenotyping of this paper (HLM with UGT1A9 inhibitors)): 90%
AUC predicted/ observed ratio (PBPK model; [22]): 1.06
Cmax predicted/ observed ratio (PBPK model; [22]): 1.03
AUC predicted/ observed ratio (PBPK model; [23]): 1.06
Cmax predicted/ observed ratio (PBPK model; [23]): 0.84
AUC predicted/ observed ratio (PBPK model; [25]): 0.92
Cmax predicted/ observed ratio (PBPK model; [25]): 0.87
Compound: CCOc1ccc(Cc2cc([C@@H]3O[C@H](CO)[C@@H](O)[C@H](O)[C@H]3O)ccc2Cl)cc1 [Dapagliflozin, dapagliflozin]
Renal excretion of unchanged drug [6]: 2%
Elimination by glucuronidation [6]: 88%
Elimination by oxidation (converted to oxidative metabolites) [6]: 10%
Share of systemic UGT clearance occurring in the liver (UGT): 90%
B/P ratio [7]: 0.88
Vss [3, 21]: 1.19 L/kg
Observed Cmax [3, 22]: 119 ng/mL
Observed Cmax [3, 23]: 728 ng/mL
Observed AUCinf [3, 24]: 628 ng·h/mL
Observed Cmax [3, 24]: 143 ng/mL
CLiv [3, 21]: 12.4 L/h
Absolute bioavailability (F) ([3]; oral, ref 15 (ertugliflozin), 38 (dapagliflozin)): 78%
LogP [4]: 2.52
Increase in dapagliflozin exposure ([1]; co-administration with mefenamic acid): 51%
Caco‐2 permeability coefficient (Caco‐2): 15.9 10^–6 cm/s

fm,CYP3A4 observed (CYP3A4 [11]; fm,CYP × % contribution): 0.103
CLint, CYP: CYP3A4 (CYP3A4 [11]; [26]): 0.041 µL/min/pmol
Fe observed (fraction excreted unchanged in urine) [5]: 0.02
fm,CYP3A5 observed (CYP3A5 [12]; fm,CYP × % contribution): 0.012
CLint, CYP: CYP3A5 (CYP3A5 [12]; [26]): 0.006 µL/min/pmol
fm,CYP2C8 observed (CYP2C8 [14]; fm,CYP × % contribution): 0.005
CLint, CYP: CYP2C8 (CYP2C8 [14]; [26]): 0.011 µL/min/pmol
microsomal CLint [8]: 8 µL/min/mg
fm,UGT2B7 observed (UGT2B4/2B7 [9]): 0.16
fm,UGT1A9 observed (UGT1A9 [10]): 0.70
microsomal CLint (UGT1A9 [10]): 35 µL/min/mg
AUC predicted/ observed ratio (PBPK model; [33]): 1.03
Cmax predicted/ observed ratio (PBPK model; [33]): 1.22
AUC predicted/ observed ratio (PBPK model; [34]): 0.97
Cmax predicted/ observed ratio (PBPK model; [34]): 1.04
AUC predicted/ observed ratio (PBPK model; [35]): 1.08
Cmax predicted/ observed ratio (PBPK model; [35]): 0.98
AUC predicted/ observed ratio (PBPK model; [36]): 0.82
Cmax predicted/ observed ratio (PBPK model; [36]): 1.16
AUC predicted/ observed ratio (PBPK model; [37]): 0.81
Cmax predicted/ observed ratio (PBPK model; [37]): 0.98
AUC predicted/ observed ratio (PBPK model; [38]): 0.82
Cmax predicted/ observed ratio (PBPK model; [38]): 0.92
AUC predicted/ observed ratio (PBPK model; [39]): 0.81
Cmax predicted/ observed ratio (PBPK model; [39]): 0.97
AUC predicted/ observed ratio (PBPK model; [40]): 0.80
Cmax predicted/ observed ratio (PBPK model; [40]): 0.92
AUC predicted/ observed ratio (PBPK model; [41]): 0.78
Cmax predicted/ observed ratio (PBPK model; [41]): 1.04
AUC predicted/ observed ratio (PBPK model; [42]): 0.83
Cmax predicted/ observed ratio (PBPK model; [42]): 1.13
Compound: CCOc1ccc(Cc2cc([C@]34OC[C@](CO)(O3)[C@@H](O)[C@H](O)[C@H]4O)ccc2Cl)cc1 [Ertugliflozin, ertugliflozin]
Renal excretion of unchanged drug [6]: ~ 2%
Elimination by glucuronidation [6]: ~ 86%
Elimination by oxidation (converted to oxidative metabolites) [6]: ~ 12%
Relative contribution of UGT1A9 to glucuronidation (UGT1A9 [13]): 81%
Contribution of CYP3A5 to oxidative metabolism (CYP3A5 [15]): 10%
Contribution of CYP3A5 to oxidative metabolism (CYP3A5 [15]; listed as ertugliflozin): 10% and 0–10%
Share of systemic UGT clearance occurring in the liver (UGT): 90%
Contribution of CYP3A4 to oxidative metabolism (CYP3A4 [16]): 86%
Contribution of CYP3A4 to oxidative metabolism (CYP3A4 [16]; listed as ertugliflozin): 86% and 85–100%
B/P ratio [7]: 0.66
Fu,plasma [17]: 0.064
Vss [3, 21]: 1.23 L/kg
Observed AUCinf [3, 27]: 45.7 (10) ng·h/mL
Observed Cmax [3, 27]: 7.23 (11) ng/mL
Observed AUCinf [3, 28]: 231 (22) ng·h/mL
Observed Cmax [3, 28]: 42.8 (21) ng/mL
Observed AUCinf [3, 29]: 909 (15) ng·h/mL
Observed Cmax [3, 29]: 182 (22) ng/mL
Observed AUCinf [3, 30]: 2810 (18) ng·h/mL
Observed Cmax [3, 30]: 545 (24) ng/mL
Observed AUCinf [3, 31]: 9610 (16) ng·h/mL
Observed Cmax [3, 31]: 1620 (16) ng/mL
Observed AUCinf [3, 32]: 26400 (16) ng·h/mL
Observed Cmax [3, 32]: 4330 (20) ng/mL
Fa ([3]; fraction absorbed, absolute bioavailability study): 1.0
CLiv [3, 21]: 11.2 L/h
LogP [4]: 2.5
Contribution of CYP2C8 to oxidative metabolism (CYP2C8 [18]): 4%
Contribution of CYP2C8 to oxidative metabolism (CYP2C8 [18]; listed as ertugliflozin): 4% and 0–4%
Relative contribution of UGT2B4/2B7 to glucuronidation (UGT2B4/2B7 [19]; in vitro UGT reaction phenotyping, assigned to UGT2B7 in model): 19%
Caco‐2 permeability coefficient (Caco‐2): 4.1 10^–6 cm/s
